Experimental data: PMC5515969, “Effects of 31 FDA approved small-molecule kinase inhibitors on isolated rat liver mitochondria” (Archives of Toxicology, 2016)
Where a name gives a salt, the structure may show the parent alone. Read-outs that look alike come from different tables or passages of the source.

Key:
RCC I = RCC I activity in submitochondrial particles; type: biochemical, rat; set-up: key to RCC I at 10XCmax / RCC I at 100XCmax / RCC I at 50XCmax / RCC I at 30XCmax / RCC I at 20XCmax: activity relative to DMSO-treated controls (control set as 1 = 100%); details: 10XCmax; relative to DMSO treated samples
Protocol: (§1) KIs were incubated with submitochondrial particles (1 mg/ml) for 15 min and then RCC I–V activities measured. […] The activities of DMSO-treated samples (controls) were set as 1. […] The difference between the activity from rotenone-containing buffer and rotenone-absent buffer was considered as RCC I activity. […] For measuring RCC I/V and II activity, the changes in absorbance at 340 and 600 nm, respectively, were determined every 1 min for 6 min. For measuring RCC III and RCC IV, the changes in absorbance at 550 nm were measured every 10 s for 2 min.

[1] = test system: isolated rat liver mitochondria
[2] = cited from earlier work
RCC V = RCC V activity in submitochondrial particles; type: biochemical, rat; details: relative to DMSO treated samples; for RCC V at 5XCmax: key: 0 indicates that the drug had no effects (negative)
Protocol: as §1

RCC II = biological target: T1, RCC II (Rattus norvegicus, UniProt P21913+Q641Z9+Q6PCT8+Q920L2); test: RCC II activity in submitochondrial particles; type: biochemical; set-up: key: activity relative to DMSO-treated controls (control set as 1 = 100%); details: relative to DMSO treated samples
T1 construct: Submitochondrial particles were prepared by subjecting the intact mitochondria to three successive freeze–thaw cycles; from tissue; host or cells: rat liver mitochondria, used as submitochondrial particles
T1 sequence (Q920L2 35-656): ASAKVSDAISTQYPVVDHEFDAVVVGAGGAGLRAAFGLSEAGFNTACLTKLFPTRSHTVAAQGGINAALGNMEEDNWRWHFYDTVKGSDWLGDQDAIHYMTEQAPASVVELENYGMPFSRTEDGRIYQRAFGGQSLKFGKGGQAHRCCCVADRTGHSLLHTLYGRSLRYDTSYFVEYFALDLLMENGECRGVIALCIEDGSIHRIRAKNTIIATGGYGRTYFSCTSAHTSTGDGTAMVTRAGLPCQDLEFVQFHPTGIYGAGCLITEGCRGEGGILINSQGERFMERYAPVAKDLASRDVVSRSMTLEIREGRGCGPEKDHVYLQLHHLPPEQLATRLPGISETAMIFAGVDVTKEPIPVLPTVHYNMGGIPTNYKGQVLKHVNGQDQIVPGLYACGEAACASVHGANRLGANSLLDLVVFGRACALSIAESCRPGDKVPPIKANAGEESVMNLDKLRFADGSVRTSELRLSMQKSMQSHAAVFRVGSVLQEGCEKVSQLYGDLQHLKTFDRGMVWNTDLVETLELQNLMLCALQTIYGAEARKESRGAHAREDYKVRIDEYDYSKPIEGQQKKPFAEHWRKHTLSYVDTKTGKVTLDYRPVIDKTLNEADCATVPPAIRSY
T1 sequence (P21913 31-282): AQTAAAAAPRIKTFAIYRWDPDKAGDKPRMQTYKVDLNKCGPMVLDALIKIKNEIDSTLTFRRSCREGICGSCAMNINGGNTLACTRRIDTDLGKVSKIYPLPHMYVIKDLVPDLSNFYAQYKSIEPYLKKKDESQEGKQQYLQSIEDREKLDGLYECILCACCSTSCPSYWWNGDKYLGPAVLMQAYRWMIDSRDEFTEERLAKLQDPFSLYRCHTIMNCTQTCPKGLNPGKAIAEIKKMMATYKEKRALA
T1 sequence (Q641Z9 1-169): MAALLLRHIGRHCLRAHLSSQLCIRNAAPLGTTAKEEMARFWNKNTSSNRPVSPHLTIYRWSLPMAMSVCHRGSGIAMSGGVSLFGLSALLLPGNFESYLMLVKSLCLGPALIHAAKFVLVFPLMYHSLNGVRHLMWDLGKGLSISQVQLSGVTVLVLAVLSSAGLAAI
T1 sequence (Q6PCT8 57-159): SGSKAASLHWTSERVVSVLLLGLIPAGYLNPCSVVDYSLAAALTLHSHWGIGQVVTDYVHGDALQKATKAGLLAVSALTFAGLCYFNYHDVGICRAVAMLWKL
Protocol: as §1

RCC IV = RCC IV activity in submitochondrial particles; type: biochemical, rat; set-up: key to RCC IV at 50XCmax / RCC IV at 100XCmax: activity relative to DMSO-treated controls (control set as 1 = 100%); details: 50XCmax; relative to DMSO treated samples; in %
Protocol: as §1

RCC III = RCC III activity in submitochondrial particles; type: biochemical, rat; set-up: key to RCC III at 100XCmax: activity relative to DMSO-treated controls (control set as 1 = 100%); details: 100XCmax; relative to DMSO treated samples
Protocol: as §1

[3] = test system: isolated rat liver mitochondria; test: Mitochondrial inner membrane potential (MMP), Rhodamine 123; type: biochemical; details: difference in signal between KI and DMSO treated samples at the end of experiments
Excerpt: Fig. 3 KI effects on mitochondrial inner membrane potential (MMP). […] In a, c, data are means and standard derivations from three separate experiments. *p < 0.05 as compared to DMSO-treated samples at the end of experiments. In b, data are means of two independent experiments

[4] = test system: isolated rat liver mitochondria; test: Mitochondrial oxygen consumption (glutamate/malate or succinate driven, state 4 and state 3); type: biochemical; details: DMSO treated samples set as 1; for State 3 respiration driven by succinate at 10XCmax: key: 0 indicates that the drug had no effects (negative); for State 3 respiration driven by succinate at 1XCmax: key: 0 indicates that the drug had no effects (negative)
Protocol: Rats were anesthetized by an intraperitoneal injection of Nembutal and the liver perfused with PBS to remove the blood. The liver was then cut into small pieces and homogenized using a Dounce type homogenizer in the ice-cold isolation buffer (IB) containing 200 mM sucrose, 10 mM Tris-MOPS, 1 mM EGTA (pH 7.4). The sample was then centrifuged at 600g for 10 min. The supernatant was further centrifuged at 7500g for 10 min, and the pellets was washed once with the IB and centrifuged again at 7500g for 10 min to collect mitochondria. […] Before drug treatment, the protein concentration was adjusted to 1 mg/ml using appropriate buffer. […] Briefly, mitochondrial and cytosolic fractions from four different preparations using four rats were diluted using the Laemmli protein loading buffer and subject to SDS-PAGE with 4–20% gradient gels. The proteins were blotted to PVDF membranes and detected using antibodies against GAPDH, ATP5A, UQCRC2, SDHB, and NDUFB8.
The aliquoted stock solutions were kept for less than one month and each tube was used only once. The KIs were added to the mitochondria at 1:1000 dilutions. […] The Cmax data were from clinical trials which used FDA recommend dosages, route of administration, and duration. […] The final concentration of DMSO for drug treatment was always 0.1%, and control treatments were 0.1% DMSO.
Briefly, mitochondria were incubated with the KIs for 5 min, and then split evenly and loaded to the sample tubes of two Oxytherm systems (Hansatech Instruments Ltd), with one system used for measuring glutamate/malate driven respiration and the other succinate-driven respiration, both of which were defined as state 4 respiration. After 3 min, ADP was added to measure the maximal oxygen consumption rate, which was defined as state 3 respiration. […] The oxygen consumption rate of DMSO-treated samples (controls) was set as 1.

[5] = test system: isolated rat liver mitochondria; test: Mitochondrial swelling (absorbance at 535 nm); type: biochemical; details: difference in signal between KI and DMSO treated samples at the end of experiments; for Swelling 5XCmax: key: 0 indicates that the drug had no effects (negative)
[6] = test system: isolated rat liver mitochondria; test: Mitochondrial ROS production (CM-H2DCFDA)
[7] = cited from earlier work; remark: listed apart in the source
[8] = set-up: method as in product labeling; details: ref product labeling, cited from earlier work
[9] = positive control alamethicin treated samples
[10] = read-out: Cmax at µM, therapeutic maximal blood concentration, ref product labeling
[11] = therapeutic maximal blood concentration, ref product labeling
[12] = human therapeutic Cmax at FDA recommended dosages, ref product labeling and drug approval packages at the official FDA website

C[C@@H]1CCN(C(=O)CC#N)C[C@@H]1N(C)c1ncnc2[nH]ccc12 [tofacitinib citrate]
RCC I at 10XCmax (RCC I): 0 | Cytochrome c release 1XCmax [1, 9]: 0 | Cytochrome c release 2.5XCmax [1, 9]: 0 | Cytochrome c release 5XCmax [1, 9]: 0 | Cytochrome c release 10XCmax [1, 9]: 0 | Cytochrome c release 20XCmax ([1]; 20XCmax, positive control alamethicin treated samples): 0 | Cytochrome c release 30XCmax ([1]; 30XCmax, positive control alamethicin treated samples): 0 | Cytochrome c release 50XCmax ([1]; 50XCmax, positive control alamethicin treated samples): 0 | Cytochrome c release 100XCmax ([1]; 100XCmax, positive control alamethicin treated samples): 7.22±1.11 percentage of the positive control group | Cmax [2, 10]: 0.089 µM | Cmax [2, 11]: 45.1 ng/mL | RCC V at 5XCmax (RCC V): 0 | RCC V at 50XCmax (RCC V; 50XCmax): 0 | RCC II at 1.0XCmax (RCC II): 0 | RCC II at 2.5XCmax (RCC II): 0 | RCC II at 5XCmax (RCC II): 0 | RCC II at 10XCmax (RCC II): 0 | RCC II at 20XCmax (RCC II; 20XCmax): 0 | RCC II at 30XCmax (RCC II; 30XCmax): 0 | RCC II at 50XCmax (RCC II; 50XCmax): 0 | RCC II at 100XCmax (RCC II; 100XCmax): 0 | RCC IV at 50XCmax (RCC IV): 0 | RCC III at 100XCmax (RCC III): 0 | MMP measured by Rhodamine 123 at 1XCmax [3]: 0 | MMP measured by Rhodamine 123 at 2.5XCmax [3]: 0 | MMP measured by Rhodamine 123 at 5XCmax [3]: 0 | MMP measured by Rhodamine 123 at 10XCmax [3]: 0 | MMP measured by Rhodamine 123 at 20XCmax ([3]; 20XCmax): 0 | MMP measured by Rhodamine 123 at 30XCmax ([3]; 30XCmax): 0 | MMP measured by Rhodamine 123 at 50XCmax ([3]; 50XCmax): 0 | MMP measured by Rhodamine 123 at 100XCmax ([3]; 100XCmax): 0 | State 3 respiration driven by succinate at 1XCmax [4]: 0 | State 4 respiration driven by succinate at 1XCmax [4]: 0 | State 3 respiration driven by succinate at 2.5XCmax [4]: 0 | State 4 respiration driven by succinate at 2.5XCmax [4]: 0 | State 3 respiration driven by succinate at 5XCmax [4]: 0 | State 4 respiration driven by succinate at 5XCmax [4]: 0 | State 3 respiration driven by succinate at 10XCmax [4]: 0 | State 4 respiration driven by succinate at 10XCmax [4]: 0 | State 3 respiration driven by succinate at 20XCmax ([4]; 20XCmax): 0 | State 4 respiration driven by succinate at 20XCmax ([4]; 20XCmax): 0 | State 3 respiration driven by succinate at 30XCmax ([4]; 30XCmax): 0 | State 4 respiration driven by succinate at 30XCmax ([4]; 30XCmax): 0 | State 3 respiration driven by succinate at 50XCmax ([4]; 50XCmax): 0 | State 4 respiration driven by succinate at 50XCmax ([4]; 50XCmax): 0 | State 3 respiration driven by succinate at 100XCmax ([4]; 100XCmax): 0 | State 4 respiration driven by succinate at 100XCmax ([4]; 100XCmax): 0 | Swelling 1XCmax [5]: 0 | Swelling 2.5XCmax [5]: 0 | Swelling 5XCmax [5]: 0 | Swelling 10XCmax [5]: 0 | Swelling 20XCmax ([5]; 20XCmax): 0 | Swelling 30XCmax ([5]; 30XCmax): 0 | Swelling 50XCmax ([5]; 50XCmax): 0 | Swelling 100XCmax ([5]; 100XCmax): 0 | ROS measured by CM-H2DCFDA at 1XCmax ([6]; DMSO treated samples set as 1): 0 | ROS measured by CM-H2DCFDA at 2.5XCmax ([6]; DMSO treated samples set as 1): 0 | ROS measured by CM-H2DCFDA at 5XCmax ([6]; DMSO treated samples set as 1): 0 | ROS measured by CM-H2DCFDA at 10XCmax ([6]; DMSO treated samples set as 1): 0 | ROS measured by CM-H2DCFDA at 20XCmax ([6]; 20XCmax, DMSO treated samples set as 1): 0 | ROS measured by CM-H2DCFDA at 30XCmax ([6]; 30XCmax, DMSO treated samples set as 1): 0 | ROS measured by CM-H2DCFDA at 50XCmax ([6]; 50XCmax, DMSO treated samples set as 1): 0 | ROS measured by CM-H2DCFDA at 100XCmax ([6]; 100XCmax, DMSO treated samples set as 1): 0

Cc1ccc(NC(=O)c2ccc(CN3CCN(C)CC3)cc2)cc1Nc1nccc(-c2cccnc2)n1 [Imatinib]
DILI potential (based on labeling) ([7]; in vivo): 1 | labeling for DILI ([7]; in vivo): W&P: fatal DILI

[Ca+2].[Cl-].[Cl-] [calcium chloride]
increase in ROS production ([6]; positive control, 100 µM CaCl2, DMSO-treated = 1): threefold

Cc1ccc(NC(=O)c2ccc(CN3CCN(C)CC3)cc2)cc1Nc1nccc(-c2cccnc2)n1 [imatinib mesylate]
Cmax [2, 10]: 2 µM | Cmax [2, 11]: 986 ng/mL | Labeling for DILI ([7]; in vivo): W&P: fatal DILI

Cc1nc(Nc2ncc(C(=O)Nc3c(C)cccc3Cl)s2)cc(N2CCN(CCO)CC2)n1 [Dasatinib]
Cmax [2, 12]: 0.18 µM | DILI potential (based on labeling) ([7]; ref FDA product labeling): 0

CN(C)C/C=C/C(=O)Nc1cc2c(Nc3ccc(F)c(Cl)c3)ncnc2cc1O[C@H]1CCOC1 [Afatinib]
Cmax [2, 12]: 0.04 µM | labeling for DILI ([7]; W&P warnings and precautions, BBW black box warnings, ref FDA product labeling): W&P: ALT↑/monitoring | DILI potential (based on labeling) ([7]; ref FDA product labeling): 1

Cc1cn(-c2cc(NC(=O)c3ccc(C)c(Nc4nccc(-c5cccnc5)n4)c3)cc(C(F)(F)F)c2)cn1 [Nilotinib]
RCC I at 10XCmax (RCC I): 0 | Labeling for cardiotoxicity ([8]; BBW: black box warning, W&P: Warnings and Precautions): BBW: QT Interval Prolongation | Potential for cardiotoxicity (based on labeling) [8]: 1 | Cytochrome c release 1XCmax [1, 9]: 0 | Cytochrome c release 2.5XCmax [1, 9]: 0 | Cytochrome c release 5XCmax [1, 9]: 0 | Cytochrome c release 10XCmax [1, 9]: 0 | Cmax [2, 12]: 4.27 µM | Cmax [2, 10]: 4.27 µM | Cmax [2, 11]: 2260 ng/mL | RCC V at 5XCmax (RCC V): 0 | RCC II at 1.0XCmax (RCC II): 0 | RCC II at 2.5XCmax (RCC II): 0 | RCC II at 5XCmax (RCC II): 0 | RCC II at 10XCmax (RCC II): 0 | MMP measured by Rhodamine 123 at 1XCmax [3]: 0 | MMP measured by Rhodamine 123 at 2.5XCmax [3]: 0 | MMP measured by Rhodamine 123 at 5XCmax [3]: 0 | MMP measured by Rhodamine 123 at 10XCmax [3]: 0 | State 3 respiration driven by succinate at 1XCmax [4]: 0 | State 4 respiration driven by succinate at 1XCmax [4]: 0 | State 3 respiration driven by succinate at 2.5XCmax [4]: 0 | State 4 respiration driven by succinate at 2.5XCmax [4]: 0 | State 3 respiration driven by succinate at 5XCmax [4]: 0 | State 4 respiration driven by succinate at 5XCmax [4]: 0 | State 3 respiration driven by succinate at 10XCmax [4]: 0 | State 4 respiration driven by succinate at 10XCmax [4]: 0 | Swelling 1XCmax [5]: 0 | Swelling 2.5XCmax [5]: 0 | Swelling 5XCmax [5]: 0 | Swelling 10XCmax [5]: 0 | ROS measured by CM-H2DCFDA at 1XCmax ([6]; DMSO treated samples set as 1): 0 | ROS measured by CM-H2DCFDA at 2.5XCmax ([6]; DMSO treated samples set as 1): 0 | ROS measured by CM-H2DCFDA at 5XCmax ([6]; DMSO treated samples set as 1): 0 | ROS measured by CM-H2DCFDA at 10XCmax ([6]; DMSO treated samples set as 1): 0

C[C@@H]1CCN(C(=O)CC#N)C[C@@H]1N(C)c1ncnc2[nH]ccc12 [Tofacitinib]
lowest concentration causing cytochrome c release ([1]; rat, 30 min, pH 7.4): 100 fold Cmax | Cmax [2, 12]: 0.09 µM

CC(=O)c1c(C)c2cnc(Nc3ccc(N4CCNCC4)cn3)nc2n(C2CCCC2)c1=O [Palbociclib]
Cmax [2, 12]: 0.24 µM | DILI potential (based on labeling) ([7]; ref FDA product labeling): 0

CNS(=O)(=O)C[C@H]1CC[C@H](N(C)c2ncnc3[nH]ccc23)CC1 [oclacitinib]
cytochrome c release from intact mitochondria [1]: significant cytochrome c release
